Results: US11987588B2, “Modulators of the beta-3 adrenergic receptor useful for the treatment or prevention of heart failure and disorders related thereto” (Arena Pharmaceuticals, Inc., priority 2017, dated 2024)

Biological target: Beta-3 Adrenergic Receptor (Homo sapiens (Human), UniProt P13945)
Assay: Homogeneous Time-Resolved Fluorescence (HTRF) cAMP antagonist assay, IC50 determination
Type: cell-based
Settings: CHO-K1 cells stably expressing recombinant receptor, isoproterenol at EC90
Summary of the method: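 In this functional readout, recombinant CHO-K1 cells received compound, then isoproterenol at its EC90. After 1 h at room temperature, cAMP levels were determined by HTRF using an on-plate standard curve, and IC50 values were fitted.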

Chain of Beta-3 Adrenergic Receptor (P13945 whole entry, species assumed): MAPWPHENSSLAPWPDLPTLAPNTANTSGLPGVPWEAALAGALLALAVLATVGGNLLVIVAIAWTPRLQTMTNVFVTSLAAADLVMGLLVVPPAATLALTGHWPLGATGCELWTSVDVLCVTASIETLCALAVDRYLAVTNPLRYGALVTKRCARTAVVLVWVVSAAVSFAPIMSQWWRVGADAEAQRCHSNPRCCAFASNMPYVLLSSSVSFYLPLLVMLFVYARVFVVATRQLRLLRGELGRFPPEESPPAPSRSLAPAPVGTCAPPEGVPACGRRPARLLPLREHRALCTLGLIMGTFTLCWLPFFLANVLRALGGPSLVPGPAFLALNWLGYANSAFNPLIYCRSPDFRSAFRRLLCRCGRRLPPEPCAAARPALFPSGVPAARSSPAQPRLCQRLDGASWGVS

IC50	Compound
0.0211 µM	CCCNS(=O)(=O)c1cccc(OC[C@@H](O)CNC2COC3(CCN(S(=O)(=O)c4ccc5ccccc5c4)CC3)C2)c1 (stereo partly drawn) [Compound 2, 3-((2S)-2-hydroxy-3-(8-(naphthalen-2-ylsulfonyl)-1-oxa-8-azaspiro[4.5]decan-3-ylamino)propoxy)-N-propylbenzenesulfonamide]
0.387 µM	CNS(=O)(=O)c1cccc(OC[C@@H](O)CNC2COC3(CCN(S(=O)(=O)c4cccc(C(=O)O)c4)CC3)C2)c1 (stereo partly drawn) [Compound 56, 3-(3-((S)-2-hydroxy-3-(3-(N-methylsulfamoyl)phenoxy)propylamino)-1-oxa-8-azaspiro[4.5]decan-8-ylsulfonyl)benzoic acid]
0.0287 µM	COCCNS(=O)(=O)c1cccc(OC[C@@H](O)CNC2COC3(CCN(S(=O)(=O)c4ccc5ccccc5c4)CC3)C2)c1 (stereo partly drawn) [Compound 13, 3-((2S)-2-hydroxy-3-(8-(naphthalen-2-ylsulfonyl)-1-oxa-8-azaspiro[4.5]decan-3-ylamino)propoxy)-N-(2-methoxyethyl)benzenesulfonamide]
0.011 µM	CNS(=O)(=O)c1cccc(OC[C@@H](O)CNC2COC3(CCN(S(=O)(=O)c4cc(Cl)ccc4OC)CC3)C2)c1 (stereo partly drawn) [Compound 148, 3-((2S)-3-(8-(5-chloro-2-methoxyphenylsulfonyl)-1-oxa-8-azaspiro[4.5]decan-3-ylamino)-2-hydroxypropoxy)-N-methylbenzenesulfonamide]
0.168 µM	CNS(=O)(=O)c1cccc(OC[C@@H](O)CNC2COC3(CCN(S(=O)(=O)c4ccc(CO)cc4)CC3)C2)c1 (stereo partly drawn) [Compound 392, 3-((2S)-2-hydroxy-3-(8-(4-(hydroxymethyl)phenylsulfonyl)-1-oxa-8-azaspiro[4.5]decan-3-ylamino)propoxy)-N-methylbenzenesulfonamide]
0.155 µM	CCOCCNS(=O)(=O)c1cccc(OC[C@@H](O)CNC2COC3(CCN(S(=O)(=O)c4ccc5ccccc5c4)CC3)C2)c1 (stereo partly drawn) [Compound 47, N-(2-ethoxyethyl)-3-((2S)-2-hydroxy-3-(8-(naphthalen-2-ylsulfonyl)-1-oxa-8-azaspiro[4.5]decan-3-ylamino)propoxy)benzenesulfonamide]
0.541 µM	CNS(=O)(=O)c1cccc(OC[C@@H](O)CN[C@H]2COC3(CCN(S(=O)(=O)c4ccc[n+]([O-])c4)CC3)C2)c1 [Compound 496, 3-((R)-3-((S)-2-hydroxy-3-(3-(N-methylsulfamoyl)phenoxy)propylamino)-1-oxa-8-azaspiro[4.5]decan-8-ylsulfonyl)pyridine 1-oxide]
0.0192 µM	NS(=O)(=O)c1cccc(OC[C@@H](O)CN[C@H]2COC3(CCN(S(=O)(=O)c4ccc5ccccc5c4)CC3)C2)c1 [Compound 560, 3-((S)-2-hydroxy-3-((R)-8-(naphthalen-2-ylsulfonyl)-1-oxa-8-azaspiro[4.5]decan-3-ylamino)propoxy)benzenesulfonamide]
0.073 µM	CNS(=O)(=O)c1cccc(OC[C@@H](O)CN[C@H]2COC3(CCN(S(=O)(=O)c4ccc5[nH]c(=O)[nH]c5c4)CC3)C2)c1 [Compound 499, 3-((S)-2-hydroxy-3-((R)-8-(2-oxo-2,3-dihydro-1H-benzo[d]imidazol-5-ylsulfonyl)-1-oxa-8-azaspiro[4.5]decan-3-ylamino)propoxy)-N-methylbenzenesulfonamide]
0.0142 µM	CNS(=O)(=O)c1cccc(OC[C@@H](O)CNC2COC3(CCN(S(=O)(=O)c4cc(Cl)cc(Cl)c4)CC3)C2)c1 (stereo partly drawn) [Compound 138, 3-((2S)-3-(8-(3,5-dichlorophenylsulfonyl)-1-oxa-8-azaspiro[4.5]decan-3-ylamino)-2-hydroxypropoxy)-N-methylbenzenesulfonamide]
0.0205 µM	CCOc1ccc(-c2ccc(CNC(C)C)cc2)cc1S(=O)(=O)N1CCC2(CC1)C[C@H](NC[C@H](O)COc1cccc(S(=O)(=O)NC)c1)CO2 [Compound 438, 3-((S)-3-((S)-8-(4-ethoxy-4′-((isopropylamino)methyl)biphenyl-3-ylsulfonyl)-1-oxa-8-azaspiro[4.5]decan-3-ylamino)-2-hydroxypropoxy)-N-methylbenzenesulfonamide]
0.0849 µM	O=C1CCCN1CCNS(=O)(=O)c1cccc(OC[C@@H](O)CNC2COC3(CCN(S(=O)(=O)c4ccc5ccccc5c4)CC3)C2)c1 (stereo partly drawn) [Compound 164, 3-((2S)-2-hydroxy-3-(8-(naphthalen-2-ylsulfonyl)-1-oxa-8-azaspiro[4.5]decan-3-ylamino)propoxy)-N-(2-(2-oxopyrrolidin-1-yl)ethyl)benzenesulfonamide]
0.0986 µM	CNS(=O)(=O)c1cccc(OC[C@@H](O)CNC2COC3(CCN(S(=O)(=O)c4ccc(NCCOC)nc4)CC3)C2)c1 (stereo partly drawn) [Compound 426, 3-((2S)-2-hydroxy-3-(8-(6-(2-methoxyethylamino)pyridin-3-ylsulfonyl)-1-oxa-8-azaspiro[4.5]decan-3-ylamino)propoxy)-N-methylbenzenesulfonamide]
0.0313 µM	CNS(=O)(=O)c1cccc(OC[C@@H](O)CN[C@H]2COC3(CCN(S(=O)(=O)c4cnc5c(c4)N(C(C)C)CCO5)CC3)C2)c1 [Compound 469, 3-((S)-2-hydroxy-3-((R)-8-(1-isopropyl-2,3-dihydro-1H-pyrido[2,3-b][1,4]oxazin-7-ylsulfonyl)-1-oxa-8-azaspiro[4.5]decan-3-ylamino)propoxy)-N-methylbenzenesulfonamide]
0.0405 µM	Cc1ccc(F)c(S(=O)(=O)N2CCC3(CC2)CC(NC[C@H](O)COc2cccc(S(=O)(=O)N(C)C)c2)CO3)c1 (stereo partly drawn) [Compound 248, 3-((2S)-3-(8-(2-fluoro-5-methylphenylsulfonyl)-1-oxa-8-azaspiro[4.5]decan-3-ylamino)-2-hydroxypropoxy)-N,N-dimethylbenzenesulfonamide]
0.0146 µM	CNS(=O)(=O)c1cccc(OC[C@@H](O)CNC2COC3(CCN(S(=O)(=O)c4cccc(-c5ccc(CN)s5)c4)CC3)C2)c1 (stereo partly drawn) [Compound 369, 3-((2S)-3-(8-(3-(5-(aminomethyl)thiophen-2-yl)phenylsulfonyl)-1-oxa-8-azaspiro[4.5]decan-3-ylamino)-2-hydroxypropoxy)-N-methylbenzenesulfonamide]
0.0307 µM	CNS(=O)(=O)c1cccc(OC[C@@H](O)CNC2COC3(CCN(S(=O)(=O)c4ccccc4OC(F)(F)F)CC3)C2)c1 (stereo partly drawn) [Compound 171, 3-((2S)-2-hydroxy-3-(8-(2-(trifluoromethoxy)phenylsulfonyl)-1-oxa-8-azaspiro[4.5]decan-3-ylamino)propoxy)-N-methylbenzenesulfonamide]
0.0157 µM	CNS(=O)(=O)c1cccc(OC[C@@H](O)CNC2COC3(CCN(S(=O)(=O)c4sc(-c5ccccc5)nc4C)CC3)C2)c1 (stereo partly drawn) [Compound 186, 3-((2S)-2-hydroxy-3-(8-(4-methyl-2-phenylthiazol-5-ylsulfonyl)-1-oxa-8-azaspiro[4.5]decan-3-ylamino)propoxy)-N-methylbenzenesulfonamide]
0.023 µM	CNS(=O)(=O)c1cccc(OC[C@@H](O)CNC2COC3(CCN(S(=O)(=O)c4ccc(-c5cccnc5)cc4)CC3)C2)c1 (stereo partly drawn) [Compound 407, 3-((2S)-2-hydroxy-3-(8-(4-(pyridin-3-yl)phenylsulfonyl)-1-oxa-8-azaspiro[4.5]decan-3-ylamino)propoxy)-N-methylbenzenesulfonamide]
0.00879 µM	CNS(=O)(=O)c1cccc(OC[C@@H](O)CNC2COC3(CCN(S(=O)(=O)c4ccc(OC)c(Cl)c4)CC3)C2)c1 (stereo partly drawn) [Compound 207, 3-((2S)-3-(8-(3-chloro-4-methoxyphenylsulfonyl)-1-oxa-8-azaspiro[4.5]decan-3-ylamino)-2-hydroxypropoxy)-N-methylbenzenesulfonamide]
0.0369 µM	CNS(=O)(=O)c1cccc(OC[C@@H](O)CN[C@H]2COC3(CCN(S(=O)(=O)c4ccc5c(n4)OCC(=O)N5)CC3)C2)c1 [Compound 443, 3-((S)-2-hydroxy-3-((R)-8-(2-oxo-2,3-dihydro-1H-pyrido[2,3-b][1,4]oxazin-6-ylsulfonyl)-1-oxa-8-azaspiro[4.5]decan-3-ylamino)propoxy)-N-methylbenzenesulfonamide]
3.02 µM	CN1CCOc2ncc(S(=O)(=O)N3CCC4(CC3)C[C@@H](NC[C@H](O)COc3cccc(S(=O)(=O)NCC#N)c3)CO4)cc21 [Compound 460, N-(cyanomethyl)-3-((S)-2-hydroxy-3-((R)-8-(1-methyl-2,3-dihydro-1H-pyrido[2,3-b][1,4]oxazin-7-ylsulfonyl)-1-oxa-8-azaspiro[4.5]decan-3-ylamino)propoxy)benzenesulfonamide]
0.0439 µM	CCn1cc(S(=O)(=O)N2CCC3(CC2)C[C@@H](NC[C@H](O)COc2cccc(S(=O)(=O)NC)c2)CO3)c(=O)c2cc(C)ccc21 [Compound 535, 3-((S)-3-((R)-8-(1-ethyl-6-methyl-4-oxo-1,4-dihydroquinolin-3-ylsulfonyl)-1-oxa-8-azaspiro[4.5]decan-3-ylamino)-2-hydroxypropoxy)-N-methylbenzenesulfonamide]
0.217 µM	CNS(=O)(=O)c1cccc(OC[C@@H](O)CN[C@H]2COC3(CCN(S(=O)(=O)c4cnc5c(c4)CCO5)CC3)C2)c1 [Compound 504, 3-((S)-3-((R)-8-(2,3-dihydrofuro[2,3-b]pyridin-5-ylsulfonyl)-1-oxa-8-azaspiro[4.5]decan-3-ylamino)-2-hydroxypropoxy)-N-methylbenzenesulfonamide]
0.0161 µM	CNS(=O)(=O)c1cccc(OC[C@@H](O)CNC2COC3(CCN(S(=O)(=O)c4cc(-c5ccc(CN)cc5)cc5c4OCC5)CC3)C2)c1 (stereo partly drawn) [Compound 358, 3-((2S)-3-(8-(5-(4-(aminomethyl)phenyl)-2,3-dihydrobenzofuran-7-ylsulfonyl)-1-oxa-8-azaspiro[4.5]decan-3-ylamino)-2-hydroxypropoxy)-N-methylbenzenesulfonamide]
0.0054 µM	CNS(=O)(=O)c1cccc(OC[C@@H](O)CNC2COC3(CCN(S(=O)(=O)c4ccc5ccccc5c4)CC3)C2)c1 (stereo partly drawn) [Compound 1, 3-((2S)-2-hydroxy-3-(8-(naphthalen-2-ylsulfonyl)-1-oxa-8-azaspiro[4.5]decan-3-ylamino)propoxy)-N-methylbenzenesulfonamide]
